Source: patent EP0347802B1, “Neurokinin A antagonists” (MERRELL DOW PHARMACEUTICALS INC., priority 1988, dated 1989)
Residues, ends and D or L forms follow the SMILES beside them.

Key:
hamster urinary bladder = assay: Hamster urinary bladder contraction preparation; parameters: species or system male golden Syrian hamsters; conditions: for effect on NKA-mediated contractile activity: NKA with 10 »M of test compound, one experiment in triplicate; for contraction produced by test compound alone: up to concentrations of 1 »M, three separate hamster bladder tissues each, thiorphan 10 »M
Text: The abscissa (x-axis) logarithmically indicates the concentration in nanomoles of agonist or antagonist of the neurokinin A (NKA) receptor. The ordinate (y-axis) indicates the observed specific binding for each tested agonist or antagonist measured as a percentage of maximum specific binding. [formula] Agonists tested were NKA and fragments of NKA consisting of the third to tenth (NKA(3-10)) amino acids and the fourth to tenth (NKA(4-10)) amino acids. Values are MEAN ± S.E.M. of 6 - 12 experiments. […] The abscissa (x-axis) logarithmically indicates the concentration in nanomolar (nM) of agonist or antagonist of the NKA receptor. […] The abscissa (x-axis) logarithmically indicates the concentration in nanomolar (nM) of agonist or antagonist of the NKA receptor. […] H-Asp-Ser-Phe-Val-Gly-Leuψ[CH₂N(CH₃)]Leu-NH₂ up to 100»M had only 5% partial agonist activity, and H-Asp-Ser-Phe-Val-Gly-Leuψ[CH₂NH]Leu-NH₂ had only 12% partial agonist activity. […] The abscissa (x-axis) logarithmically indicates the concentration in nanomolar (nM) of NKA or NKA with 10 »M of H-Asp-Ser-Phe-Val-Gly-Leuψ[CH₂NH]Leu-NH₂. […] The abscissa (x-axis) logarithmically indicates the concentration in nanomolar (nM) of NKA or NKA with 10 »M of H-Asp-Ser-Phe-Val-Gly-Leuψ[CH₂N(CH₃)]Leu-NH₂. Values are MEAN ± S.E.M. from one experiment in triplicate.
Half-strips of urinary bladders from male golden Syrian hamsters (75 - 100 g) were suspended in Tyrode's buffer at 31°C and with 1 gram resting tension as described by Dion et al. (Life Sciences 41: 2269 - 2278, 1987). The enkephalinase inhibitor thiorphan was added to the buffer at 10 »M 15 minutes prior to each test compound addition. Cumulative NKA dose-response curves were constructed first in the absence and then in the presence of test compound. The test compounds were added cumulatively as well to ascertain whether or not they had any contractile effects themselves. Any test compound effect that was observed was allowed to plateau before the next cumulative concentration was added. Under these conditions, the EC₅₀ for NKA contractile effects was generally 10 nM, in good agreement with literature values. Contractile data are expressed as grams of tension developed over and above the resting tension. […] Figures 4 and 5 illustrate the contractile force as a function of NKA concentration in the absence and presence of test compound.

NKA receptor = molecular target: T1, NKA receptor (Mesocricetus auratus, UniProt P51144); assay: Neurokinin A-induced phosphatidylinositol (PI) turnover in hamster urinary bladder; format: cell-based; conditions: for shift of NKA dose-response curve (PI turnover): one experiment in triplicate; for partial agonist activity: test compound alone
T1 construct: from tissue; host or cells: hamster urinary bladder, chopped tissue
T1 sequence (P51144 1-384): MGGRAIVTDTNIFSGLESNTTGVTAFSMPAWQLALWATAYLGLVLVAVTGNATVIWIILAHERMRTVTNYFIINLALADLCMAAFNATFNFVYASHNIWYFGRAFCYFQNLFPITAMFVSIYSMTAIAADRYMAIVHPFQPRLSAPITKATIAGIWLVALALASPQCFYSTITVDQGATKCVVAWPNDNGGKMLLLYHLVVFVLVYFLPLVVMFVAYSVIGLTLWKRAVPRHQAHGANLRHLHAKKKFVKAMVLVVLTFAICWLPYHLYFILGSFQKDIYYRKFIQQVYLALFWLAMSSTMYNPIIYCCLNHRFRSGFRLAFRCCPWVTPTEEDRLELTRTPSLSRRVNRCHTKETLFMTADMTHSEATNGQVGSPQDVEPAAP
Text: The abscissa (x-axis) logarithmically indicates the concentration in nanomoles of agonist or antagonist of the neurokinin A (NKA) receptor. […] The abscissa (x-axis) logarithmically indicates the concentration in nanomolar (nM) of agonist or antagonist of the NKA receptor. […] The abscissa (x-axis) logarithmically indicates the concentration in nanomolar (nM) of agonist or antagonist of the NKA receptor. […])]Leu-NH2 up to 100»M had only 5% partial agonist activity, and […] had only 12% partial agonist activity. […] Values are MEAN ± S.E.M. from one experiment in triplicate. Urinary bladders from several hamsters were pooled and chopped at 350 »m with a tissue chopper. The chopped tissue was then incubated in 37°C Krebs-Hepes buffer with fresh buffer changes every 15 minutes for 30 minutes. The tissue was then incubated in this buffer containing 100-200 »Ci of 3H-inositol at 37°C. The tissue was then washed and incubated for another 30 minutes in Krebs-Hepes (containing 10 mM Li+) at 37°C with fresh buffer change every 15 minutes. Portions of the tissue mass (approximately 10-20 mg per assay tube) were then placed in Li+ buffer, test compound was then added in 25 »l, and then various concentrations of neurokinin A were added in 25 »l in a final volume of 250 »l. […] Test compound was also evaluated alone at the indicated concentrations to test for agonist activity. After 30 minutes at room temperature, the phosphatidylinositol turnover was terminated by the addition of 940 »l chloroform:methanol (1:2), followed by 310 »l chloroform, followed by 310 »l water. Each tube was then vortexed for 15 seconds and then centrifuged at 3000 rpm for 10 minutes to separate the phases. 900 »l of the top (aqueous) phase was then loaded onto a 0.5 ml Biorad AG-1X8 (formate) ion exchange column. 50 »l of the bottom phase (chloroform) was withdrawn from each tube and placed in a counting vial, dried, and counted in scintillation fluid. The material on the columns was washed in order with: • 1) 10 ml of water • 2) 5 ml of 5 mM disodium tetraborate/60 mM sodium formate • 3) 10 ml of 1 M ammonium formate in 0.1 M formic acid The final (third) wash was collected and one ml was mixed with 6 ml of ACS scintillant and counted. The ratio of these counts (total inositol phosphates) to the corresponding organic phase counts was then calculated for each sample. The ratios in the presence of test compound and/or standards were then compared to the ratios for control tubes (i.e., no stimulating agonist). Dose-response curves were constructed and the abilities of test compounds to stimulate or to inhibit neurokinin A-induced phosphatidylinositol turnover were determined by graphical analysis or with the aid of a computer program and are illustrated in Figures 2 and 3.

Row | SMILES | effect on NKA-mediated contractile activity (hamster urinary bladder) | contraction produced by test compound alone (hamster urinary bladder) | shift of NKA dose-response curve (PI turnover) (NKA receptor; 1, 10 and 100 »M test compound) | Kb (NKA receptor; Schild plot of NKA dose-response shifts at 1, 10 and 100 »M, read-out: pA2 (converted)) [nM] | slope of the Schild plot (NKA receptor; from NKA dose-response shifts at 1, 10 and 100 »M) | partial agonist activity (NKA receptor; up to 100»M) [%] | shift of NKA dose-response curve (PI turnover) (NKA receptor; 10 »M test compound) | partial agonist activity (NKA receptor) [%]
1 | CC(C)C[C@@H](CN(C)[C@@H](CC(C)C)C(N)=O)NC(=O)CNC(=O)[C@@H](NC(=O)[C@H](Cc1ccccc1)NC(=O)[C@H](CO)NC(=O)[C@@H](N)CC(=O)O)C(C)C [H-Asp-Ser-Phe-Val-Gly-Leuψ[CH₂N(CH₃)]Leu-NH₂] (HELM PEPTIDE1{D.S.F.V.G.[CC(C)C[C@@H](CN(C)[C@@H](CC(C)C)C(N)=O)N[*:1]]}$$$$V2.0) | antagonistic effect | did not produce any contraction | significant rightward shift of NKA dose-response curve in competitive manner | 21.9 | -.99 | 5 | – | –
2 | CC(C)C[C@@H](CN[C@@H](CC(C)C)C(N)=O)NC(=O)CNC(=O)[C@@H](NC(=O)[C@H](Cc1ccccc1)NC(=O)[C@H](CO)NC(=O)[C@@H](N)CC(=O)O)C(C)C [H-Asp-Ser-Phe-Val-Gly-Leuψ[CH₂NH]Leu-NH₂] (HELM PEPTIDE1{D.S.F.V.G.[CC(C)C[C@@H](CN[C@@H](CC(C)C)C(N)=O)N[*:1]]}$$$$V2.0) | antagonistic effect | did not produce any contraction | – | – | – | – | significant rightward shift of NKA dose-response curve in competitive manner | 12
